We go through 30 compounds from patent publication US8314112B2 (Novartis AG, priority 2008, dated 2012).

The structures appear in SMILES notation.

By IC50 is commonly meant the concentration that gives 50% inhibition. Lower therefore signals inhibition by little substance.

The target in the assay is T1, human ALK5 (kinase domain, ALK5 T204D) (Homo sapiens, UniProt P36897, T204D).
T1 construct: The kinase domain of human ALK5 (amino acids 200-503); made in house; host or cells: insect cells (baculovirus)
T1 sequence (P36897 200-503 T204D): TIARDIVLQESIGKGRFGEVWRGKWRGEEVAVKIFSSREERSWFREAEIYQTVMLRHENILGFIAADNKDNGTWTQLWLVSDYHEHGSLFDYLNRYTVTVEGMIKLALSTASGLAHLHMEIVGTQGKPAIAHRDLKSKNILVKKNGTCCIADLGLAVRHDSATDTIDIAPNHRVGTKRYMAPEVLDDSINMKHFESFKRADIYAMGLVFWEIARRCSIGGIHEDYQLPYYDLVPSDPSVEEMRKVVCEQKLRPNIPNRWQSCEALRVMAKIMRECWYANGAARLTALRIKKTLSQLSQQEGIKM
Kind of assay: ALK5 kinase assay ([33P] phosphate incorporation into casein). As to conditions: casein substrate, 1 μM unlabelled ATP. The class given is biochemical. An outline of the steps:
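His-tagged human ALK5 T204D kinase domain (aa 200-503, constitutively active, baculovirus/insect-cell expressed), 50 ng/well, preincubated 10 min with compound and dephosphorylated casein (200 μg/well) in Tris pH 7.4/MgCl2/MnCl2. Reaction started with 1 μM ATP plus [33P]ATP, 50 min at room temperature, EDTA-stopped; casein-bound 33P counted by scintillation after filter capture.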
With `Cc1cccc(-c2cc(-c3cncc(-c4ccc(CN5CC[C@H](N(C)C)C5)cc4)c3)c3cc[nH]c3n2)n1` [Example 110, Dimethyl-[(S)-1-(4-{5-[6-(6-methyl-pyridin-2-yl)-1H-pyrrolo[2,3-b]pyridin-4-yl]-pyridin-3-yl}-benzyl)-pyrrolidin-3-yl]-amine], half-maximal inhibition (IC50) required 20 nM.
Turning to `Cc1cccc(-c2cc(-c3cncc(C4=CCNCC4)c3)c3cc[nH]c3n2)n1` [Example 111, 5-[6-(6-Methyl-pyridin-2-yl)-1H-pyrrolo[2,3-b]pyridin-4-yl]-1′,2′,3′,6′-tetrahydro-[3,4′]bipyridinyl], 42 nM corresponded to half-maximal inhibition (IC50).
For the compound `Cc1cccc(-c2cc(-c3cncc(-c4ccc(C(C)N)cc4)c3)c3cc[nH]c3n2)n1` (stereo not drawn) [Example 112, 1-(4-{5-[6-(6-Methyl-pyridin-2-yl)-1H-pyrrolo[2,3-b]pyridin-4-yl]-pyridin-3-yl}-phenyl)-ethylamine], the IC50 turned out to be 7 nM.
With `Cc1cccc(-c2cc(-c3cncc(-c4cccc(C(C)(C)N)c4)c3)c3cc[nH]c3n2)n1` [Example 113, 1-Methyl-1-(3-{5-[6-(6-methyl-pyridin-2-yl)-1H-pyrrolo[2,3-b]pyridin-4-yl]-pyridin-3-yl}-phenyl)-ethylamine], inhibition was half-maximal at 27 nM (IC50). This IC50 is about 3.9-fold higher than that of the compound before.
For `Cc1cccc(-c2cc(-c3cncc(-c4ccc(C(C)(C)N)cc4)c3)c3cc[nH]c3n2)n1` [Example 114, 1-Methyl-1-(4-{5-[6-(6-methyl-pyridin-2-yl)-1H-pyrrolo[2,3-b]pyridin-4-yl]-pyridin-3-yl}-phenyl)-ethylamine], inhibition was half-maximal at 4.6 nM (IC50).
Regarding `Cc1cccc(-c2nc(-c3cncc(-c4ccc5c(c4)CCNC5)c3)c3cc[nH]c3n2)n1` [Example 115, 6-{5-[2-(6-Methyl-pyridin-2-yl)-7H-pyrrolo[2,3-d]pyrimidin-4-yl]-pyridin-3-yl}-1,2,3,4-tetrahydro-isoquinoline], the IC50 is 1150 nM. Compared with the last compound, the IC50 is about 250-fold higher.
Turning to `Cc1cccc(-c2nc(-c3cncc(C4=CCN(C)CC4)c3)c3cc[nH]c3n2)n1` [Example 116, 1′-Methyl-5-[2-(6-methyl-pyridin-2-yl)-7H-pyrrolo[2,3-d]pyrimidin-4-yl]-1′,2′,3′,6′-tetrahydro-[3,4′]bipyridinyl], the concentration for half-maximal inhibition (IC50) amounted to 532 nM.
`Cc1cccc(-c2nc(-c3cncc(-c4cnn(C)c4)c3)c3cc[nH]c3n2)n1` [Example 117, 4-[5-(1-Methyl-1H-pyrazol-4-yl)-pyridin-3-yl]-2-(6-methyl-pyridin-2-yl)-7H-pyrrolo[2,3-d]pyrimidine]: 15 nM corresponded to half-maximal inhibition (IC50).
The compound `Cc1cccc(-c2nc(-c3cncc(-c4ccc5c(c4)CNCC5)c3)c3cc[nH]c3n2)n1` [Example 118, 7-{5-[2-(6-Methyl-pyridin-2-yl)-7H-pyrrolo[2,3-d]pyrimidin-4-yl]-pyridin-3-yl}-1,2,3,4-tetrahydro-isoquinoline] came in with a concentration for half-maximal inhibition (IC50) of 3.9 nM.
Compound `C#Cc1cncc(-c2nc(-c3cccc(C)n3)nc3[nH]ccc23)c1` [Example 119, 4-(5-Ethynyl-pyridin-3-yl)-2-(6-methyl-pyridin-2-yl)-7H-pyrrolo[2,3-d]pyrimidine] yielded a 50% inhibitory concentration (IC50) of 292 nM.
In turn, `Cc1cccc(-c2cc(-c3cncc(-c4cccc(C5CCCN5)c4)c3)c3cc[nH]c3n2)n1` (stereo not drawn) [Example 120, 6-(6-Methyl-pyridin-2-yl)-4-[5-(3-pyrrolidin-2-yl-phenyl)-pyridin-3-yl]-1H-pyrrolo[2,3-b]pyridine] displayed an IC50 of 3.6 nM. This IC50 lies about 81-fold lower than the previous one.
The compound `CC(=O)N1CC=C(c2cncc(-c3cc(-c4cccc(C)n4)nc4[nH]ccc34)c2)CC1` [Example 121, 1-{5-[6-(6-Methyl-pyridin-2-yl)-1H-pyrrolo[2,3-b]pyridin-4-yl]-3′,6′-dihydro-2′H-[3,4′]bipyridinyl-1′-yl}-ethanone] returned an IC50 of 65 nM.
For `Cc1cccc(-c2nc(-c3cncc(C#CCN4CCN(C)CC4)c3)c3cc[nH]c3n2)n1` [Example 122, 4-{5-[3-(4-methyl-piperazin-1-yl)-prop-1-ynyl]-pyridin-3-yl}-2-(6-methyl-pyridin-2-yl)-7H-pyrrolo[2,3-d]pyrimidine], half-maximal inhibition (IC50) required 45 nM.
`Cc1cccc(-c2cc(-c3cncc(-c4cnn(C)c4)c3)c3cc[nH]c3n2)n1` [Example 123, 4-[5-(1-Methyl-1H-pyrazol-4-yl)-pyridin-3-yl]-6-(6-methyl-pyridin-2-yl)-1H-pyrrolo[2,3-b]pyridine] came in with an IC50 of 4.4 nM. Against the preceding compound, the IC50 is about 10-fold lower.
`Cc1cccc(-c2nc(-c3cncc(-c4ccc(CN(C)C)cn4)c3)c3cc[nH]c3n2)n1` [Example 124, Dimethyl-{5′-[2-(6-methyl-pyridin-2-yl)-7H-pyrrolo[2,3-d]pyrimidin-4-yl]-[2,3′]bipyridinyl-5-ylmethyl}-amine] showed a 50% inhibitory concentration (IC50) of 11 nM. This IC50 lies about 2.5-fold higher than the previous one.
Next, `Cc1cccc(-c2cc(-c3cncc(-c4ccc(CN(C)C)cn4)c3)c3cc[nH]c3n2)n1` [Example 125, Dimethyl-{5′-[6-(6-methyl-pyridin-2-yl)-1H-pyrrolo[2,3-b]pyridin-4-yl]-[2,3′]-5-ylmethyl}-amine]: 8 nM; `Cc1cccc(-c2nc(-c3cncc4c3CCCO4)c3cc[nH]c3n2)n1` [Example 126, 5-[2-(6-Methyl-pyridin-2-yl)-7H-pyrrolo[2,3-d]pyrimidin-4-yl]-3,4-dihydro-2H-pyrano[2,3-c]pyridine]: 229 nM.
`Cc1cccc(-c2cc(-c3cncc(-c4ccc([C@H](C)N)cc4)c3)c3cc[nH]c3n2)n1` [Example 127, (S)-1-(4-{5-[6-(6-Methyl-pyridin-2-yl)-1H-pyrrolo[2,3-b]pyridin-4-yl]-pyridin-3-yl}-phenyl)-ethylamine] registered a concentration for half-maximal inhibition (IC50) of 17 nM.
The same measure for `Cc1cccc(-c2cc(-c3cncc(-c4ccc([C@@H](C)N)cc4)c3)c3cc[nH]c3n2)n1` [Example 128, (R)-1-(4-{5-[6-(6-Methyl-pyridin-2-yl)-1H-pyrrolo[2,3-b]pyridin-4-yl]-pyridin-3-yl}-phenyl)-ethylamine]: 13 nM.
Regarding `Cc1cccc(-c2cc(-c3cncc(C#CCN4CCN(C)CC4)c3)c3cc[nH]c3n2)n1` [Example 129, 4-{5-[3-(4-Methyl-piperazin-1-yl)-prop-1-ynyl]-pyridin-3-yl}-6-(6-methyl-pyridin-2-yl)-1H-pyrrolo[2,3-b]pyridine], the half-maximal inhibitory concentration (IC50) stood at 16 nM.
Take `Cc1cccc(-c2cc(-c3cncc(-c4cccc(CNCC(=O)O)c4)c3)c3cc[nH]c3n2)n1` [Example 130, (3-{5-[6-(6-Methyl-pyridin-2-yl)-1H-pyrrolo[2,3-b]pyridin-4-yl]-pyridin-3-yl}-benzylamino)-acetic acid]: 11 nM corresponded to half-maximal inhibition (IC50).
Compound `COC(=O)CNCc1cccc(-c2cncc(-c3cc(-c4cccc(C)n4)nc4[nH]ccc34)c2)c1` [Example 131, (3-{5-[6-(6-Methyl-pyridin-2-yl)-1H-pyrrolo[2,3-b]pyridin-4-yl]-pyridin-3-yl}-benzylamino)-acetic acid methyl ester] showed a 50% inhibitory concentration (IC50) of 10 nM.
The compound `Cc1cccc(-c2cc(-c3cncc(-c4cccc(CNCCO)c4)c3)c3cc[nH]c3n2)n1` [Example 132, 2-(3-{5-[6-(6-Methyl-pyridin-2-yl)-1H-pyrrolo[2,3-b]pyridin-4-yl]-pyridin-3-yl}-benzylamino)-ethanol] gave a half-maximal inhibitory concentration (IC50) of 5.3 nM.
Next, `COC(=O)CNCc1ccc(-c2cncc(-c3cc(-c4cccc(C)n4)nc4[nH]ccc34)c2)cc1` [Example 133, (4-{5-[6-(6-methyl-pyridin-2-yl)-1H-pyrrolo[2,3-b]pyridin-4-yl]-pyridin-3-yl}-benzylamino)-acetic acid methyl ester]: 7 nM.
Turning to `Cc1cccc(-c2cc(-c3cncc(-c4ccc(CN5CCC(F)(F)C5)cc4)c3)c3cc[nH]c3n2)n1` [Example 134, 4-{5-[4-(3,3-Difluoro-pyrrolidin-1-ylmethyl)-phenyl]-pyridin-3-yl}-6-(6-methyl-pyridin-2-yl)-1H-pyrrolo[2,3-b]pyridine], 39 nM corresponded to half-maximal inhibition (IC50).
`Cc1cccc(-c2cc(-c3cncc(-c4ccc(CNCCO)cc4)c3)c3cc[nH]c3n2)n1` [Example 135, 2-(4-{5-[6-(6-Methyl-pyridin-2-yl)-1H-pyrrolo[2,3-b]pyridin-4-yl]-pyridin-3-yl}-benzylamino)-ethanol]: the IC50 came out at 3.3 nM. Compared with the last compound, the IC50 is about 12-fold lower.
In the case of `Cc1cccc(-c2cc(-c3cncc(-c4ccc(CNCC(=O)O)cc4)c3)c3cc[nH]c3n2)n1` [Example 136, (4-{5-[6-(6-Methyl-pyridin-2-yl)-1H-pyrrolo[2,3-b]pyridin-4-yl]-pyridin-3-yl}-benzylamino)-acetic acid], the IC50 came out at 10 nM.
With `Cc1cccc(-c2cc(-c3cncc(-c4ccc(CN5CCN(C(C)C)CC5)cc4)c3)c3cc[nH]c3n2)n1` [Example 137, 4-{5-[4-(4-Isopropyl-piperazin-1-ylmethyl)-phenyl]-pyridin-3-yl}-6-(6-methyl-pyridin-2-yl)-1H-pyrrolo[2,3-b]pyridine], half-maximal inhibition (IC50) was put at 9 nM.
`Cc1cccc(-c2cc(-c3cncc(-c4ccc(CN5CC(O)C5)cc4)c3)c3cc[nH]c3n2)n1` [Example 138, 1-(4-{5-[6-(6-Methyl-pyridin-2-yl)-1H-pyrrolo[2,3-b]pyridin-4-yl]-pyridin-3-yl}-benzyl)-azetidin-3-ol] had an IC50 of 11 nM.
`Cc1cccc(-c2cc(-c3cncc(-c4ccc(CNCCCO)cc4)c3)c3cc[nH]c3n2)n1` [Example 139, 3-(4-{5-[6-(6-Methyl-pyridin-2-yl)-1H-pyrrolo[2,3-b]pyridin-4-yl]-pyridin-3-yl}-benzylamino)-propan-1-ol] gave an IC50 of 9 nM.
